Assay results as given in ChEMBL document CHEMBL1201862, “PubChem BioAssay data set” (2004).
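In this assay, cells in 96-well plates receive the compound at five concentrations for 48 hours. Endpoints are linearly interpolated between the surrounding concentrations. GI50 = concentration required for 50% inhibition of growth.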 Activity calls are given as the source filed them. Cut-off read from the data, not from the text of the source: active = GI50 up to about 1.1 µM and inactive = higher.

Legend:
Assay in all cases: DTP human tumour cell line panel, 48 h
ACHN = system: ACHN
COLO 205 = system: COLO 205
HCT-116 = system: HCT-116
HL-60 = system: HL-60
HOP-92 = system: HOP-92
Hs-578T = system: Hs-578T
K562 = system: K562
KM12 = system: KM12
M14 = system: M14
MDA-MB-231 = system: MDA-MB-231
NCI-H23 = system: NCI-H23
OVCAR-3 = system: OVCAR-3
OVCAR-5 = system: OVCAR-5
OVCAR-8 = system: OVCAR-8
SF-295 = system: SF-295
SF-539 = system: SF-539
SK-MEL-28 = system: SK-MEL-28
SK-MEL-5 = system: SK-MEL-5
LOX IMVI = system: LOX IMVI
SW-620 = system: SW-620

SMILES | GI50 (ACHN) | GI50 (COLO 205) | GI50 (HCT-116) | GI50 (HL-60) | GI50 (HOP-92) | GI50 (Hs-578T) | GI50 (K562) | GI50 (KM12) | GI50 (M14) | GI50 (MDA-MB-231) | GI50 (NCI-H23) | GI50 (OVCAR-3) | GI50 (OVCAR-5) | GI50 (OVCAR-8) | GI50 (SF-295) | GI50 (SF-539) | GI50 (SK-MEL-28) | GI50 (SK-MEL-5) | GI50 (LOX IMVI) | GI50 (SW-620)
CCCCn1c(N)c(-c2nc3ccccc3o2)sc1=S | 10.3 µM (inactive) | 29.4 µM (inactive) | 10.5 µM (inactive) | > 100 µM (inactive) | 45.5 µM (inactive) | 26.9 µM (inactive) | 22.3 µM (inactive) | 12.5 µM (inactive) | 23 µM (inactive) | 16.8 µM (inactive) | 15.6 µM (inactive) | 16.7 µM (inactive) | 24.8 µM (inactive) | 17.5 µM (inactive) | 12.6 µM (inactive) | 10.1 µM (inactive) | 18.8 µM (inactive) | 14 µM (inactive) | – | –
NNC(=O)Nc1nc2ccc(NN)cc2[nH]1 | 29 µM (inactive) | 16.5 µM (inactive) | 32.8 µM (inactive) | 12.5 µM (inactive) | 19.7 µM (inactive) | 33.7 µM (inactive) | 18.7 µM (inactive) | 19.5 µM (inactive) | 31.5 µM (inactive) | 51.9 µM (inactive) | 44.1 µM (inactive) | 24.5 µM (inactive) | > 100 µM (inactive) | 54 µM (inactive) | 47.2 µM (inactive) | 12.6 µM (inactive) | 19 µM (inactive) | 22.9 µM (inactive) | 43.1 µM (inactive) | 23.8 µM (inactive)
NCCN(CCN)/[N+]([O-])=N/O | > 100 µM (inactive) | > 100 µM (inactive) | > 100 µM (inactive) | > 100 µM (inactive) | > 100 µM (inactive) | > 100 µM (inactive) | 50.5 µM (inactive) | > 100 µM (inactive) | 72.8 µM (inactive) | > 100 µM (inactive) | > 100 µM (inactive) | > 100 µM (inactive) | > 100 µM (inactive) | > 100 µM (inactive) | > 100 µM (inactive) | > 100 µM (inactive) | > 100 µM (inactive) | > 100 µM (inactive) | > 100 µM (inactive) | > 100 µM (inactive)
COC1=CC(=O)c2c(c(-c3csc(C)n3)cn2C)C1=O | 25.8 µM (inactive) | 19.8 µM (inactive) | 23.4 µM (inactive) | 2.13 µM (inactive) | > 100 µM (inactive) | 21.6 µM (inactive) | 25.4 µM (inactive) | 22.8 µM (inactive) | 5.58 µM (inactive) | 29.4 µM (inactive) | 2.56 µM (inactive) | 9.14 µM (inactive) | 49.5 µM (inactive) | 22.6 µM (inactive) | 6.75 µM (inactive) | 17.9 µM (inactive) | 44.5 µM (inactive) | 1.72 µM (inactive) | 4.81 µM (inactive) | 35.9 µM (inactive)
C#CCN(CC#C)C(=O)C(=O)c1c[nH]c2ccc(OC)cc12 | 21.3 µM (inactive) | 21.6 µM (inactive) | 17.5 µM (inactive) | 3.99 µM (inactive) | 14.2 µM (inactive) | 16.1 µM (inactive) | 18.6 µM (inactive) | 14 µM (inactive) | 18.5 µM (inactive) | 14.9 µM (inactive) | 22.4 µM (inactive) | – | 17.4 µM (inactive) | 22 µM (inactive) | 17.5 µM (inactive) | 14 µM (inactive) | 16.1 µM (inactive) | 15.8 µM (inactive) | 18.7 µM (inactive) | 20.3 µM (inactive)
COC(=O)c1ccccc1/C=C1\Cc2ccc3c(c2C1=O)CCC3 | > 100 µM (inactive) | > 100 µM (inactive) | > 100 µM (inactive) | > 100 µM (inactive) | > 100 µM (inactive) | > 100 µM (inactive) | > 100 µM (inactive) | > 100 µM (inactive) | – | > 100 µM (inactive) | > 100 µM (inactive) | > 100 µM (inactive) | > 100 µM (inactive) | > 100 µM (inactive) | > 100 µM (inactive) | > 100 µM (inactive) | > 100 µM (inactive) | > 100 µM (inactive) | > 100 µM (inactive) | > 100 µM (inactive)
CC(C)=CCN1c2ccccc2[C@@]2(CC=C(C)C)CCN(C)[C@@H]12 [(+)-DEBROMOFLUSTRAMINE B] | 32.5 µM (inactive) | 13.9 µM (inactive) | 23.6 µM (inactive) | 16.1 µM (inactive) | 32.7 µM (inactive) | 22 µM (inactive) | 19.6 µM (inactive) | 24.5 µM (inactive) | – | 21.4 µM (inactive) | 40.5 µM (inactive) | 18.1 µM (inactive) | > 100 µM (inactive) | 28.2 µM (inactive) | 21 µM (inactive) | 24.3 µM (inactive) | 35.5 µM (inactive) | 17.6 µM (inactive) | 15.1 µM (inactive) | 26.7 µM (inactive)
Cc1ccc(S(=O)(=O)N2CCCN(S(=O)(=O)c3ccc(C)cc3)CCN(S(=O)(=O)c3ccc(C)cc3)CCCSCC2)cc1 | > 100 µM (inactive) | > 100 µM (inactive) | > 100 µM (inactive) | > 100 µM (inactive) | > 100 µM (inactive) | > 100 µM (inactive) | > 100 µM (inactive) | – | > 100 µM (inactive) | 59.3 µM (inactive) | > 100 µM (inactive) | > 100 µM (inactive) | > 100 µM (inactive) | > 100 µM (inactive) | 89.7 µM (inactive) | > 100 µM (inactive) | > 100 µM (inactive) | > 100 µM (inactive) | – | > 100 µM (inactive)
CC(O)CNC1=CC(=O)C(=O)c2ccccc21 (centres undefined) | 18.5 µM (inactive) | 7.64 µM (inactive) | 16.1 µM (inactive) | 27.4 µM (inactive) | 19.5 µM (inactive) | 22.8 µM (inactive) | 28.9 µM (inactive) | 19.2 µM (inactive) | 15.5 µM (inactive) | 22 µM (inactive) | 16.5 µM (inactive) | 3 µM (inactive) | 19.5 µM (inactive) | – | 13.5 µM (inactive) | 19.2 µM (inactive) | 19 µM (inactive) | 2.82 µM (inactive) | 15.9 µM (inactive) | 15.5 µM (inactive)
CN1CCC(n2[nH]c(-c3ccccc3)c(Cc3ccccc3)c2=O)CC1 [BENZPIPERYLON] | > 100 µM (inactive) | > 100 µM (inactive) | 75.9 µM (inactive) | – | > 100 µM (inactive) | 50.9 µM (inactive) | 42.2 µM (inactive) | > 100 µM (inactive) | > 100 µM (inactive) | > 100 µM (inactive) | > 100 µM (inactive) | > 100 µM (inactive) | > 100 µM (inactive) | > 100 µM (inactive) | > 100 µM (inactive) | 57.1 µM (inactive) | > 100 µM (inactive) | > 100 µM (inactive) | > 100 µM (inactive) | > 100 µM (inactive)
COc1ccc(/C(Cl)=C(\CNc2ccccn2)c2ccccc2)cc1OC | > 100 µM (inactive) | > 100 µM (inactive) | > 100 µM (inactive) | > 100 µM (inactive) | > 100 µM (inactive) | > 100 µM (inactive) | > 100 µM (inactive) | > 100 µM (inactive) | – | > 100 µM (inactive) | > 100 µM (inactive) | – | > 100 µM (inactive) | > 100 µM (inactive) | > 100 µM (inactive) | > 100 µM (inactive) | > 100 µM (inactive) | > 100 µM (inactive) | > 100 µM (inactive) | > 100 µM (inactive)
CCCCCCCCCCC(C(=O)O)C1(C(=O)O)CCC(=O)O1 (centres undefined) | > 100 µM (inactive) | > 100 µM (inactive) | > 100 µM (inactive) | 90.8 µM (inactive) | > 100 µM (inactive) | > 100 µM (inactive) | > 100 µM (inactive) | > 100 µM (inactive) | > 100 µM (inactive) | > 100 µM (inactive) | > 100 µM (inactive) | > 100 µM (inactive) | > 100 µM (inactive) | > 100 µM (inactive) | > 100 µM (inactive) | – | > 100 µM (inactive) | – | > 100 µM (inactive) | > 100 µM (inactive)
COc1ccc(C(=O)C(Br)C(Br)C(=O)O)cc1 (centres undefined) | 44.2 µM (inactive) | 21.9 µM (inactive) | 20.8 µM (inactive) | – | > 100 µM (inactive) | 35.2 µM (inactive) | 29 µM (inactive) | 52.1 µM (inactive) | 54.1 µM (inactive) | > 100 µM (inactive) | 39.4 µM (inactive) | 28.3 µM (inactive) | 32.7 µM (inactive) | 32.7 µM (inactive) | > 100 µM (inactive) | 21.4 µM (inactive) | 40.4 µM (inactive) | > 100 µM (inactive) | 21 µM (inactive) | 23.3 µM (inactive)
CC(C)=Cc1cc(CCC/C(C)=C/Cc2c(O)cc(C)c(C(=O)O)c2O)co1 | > 100 µM (inactive) | > 100 µM (inactive) | > 100 µM (inactive) | – | > 100 µM (inactive) | 26.2 µM (inactive) | 0.203 µM (active) | > 100 µM (inactive) | > 100 µM (inactive) | 39 µM (inactive) | > 100 µM (inactive) | > 100 µM (inactive) | > 100 µM (inactive) | 84.9 µM (inactive) | > 100 µM (inactive) | > 100 µM (inactive) | > 100 µM (inactive) | > 100 µM (inactive) | 86.9 µM (inactive) | > 100 µM (inactive)
CC1(C)CC2(C)CC1CC2(O)c1ccccc1 (centres undefined) | > 100 µM (inactive) | > 100 µM (inactive) | > 100 µM (inactive) | > 100 µM (inactive) | 42.7 µM (inactive) | > 100 µM (inactive) | > 100 µM (inactive) | > 100 µM (inactive) | > 100 µM (inactive) | > 100 µM (inactive) | > 100 µM (inactive) | > 100 µM (inactive) | > 100 µM (inactive) | > 100 µM (inactive) | > 100 µM (inactive) | > 100 µM (inactive) | > 100 µM (inactive) | > 100 µM (inactive) | – | > 100 µM (inactive)
